Measurements published in patent US11826352B2, “Edaravone suspension for oral administration” (MITSUBISHI TANABE PHARMA CORPORATION, priority 2018, dated 2023).

Key:
[1] = Contact angle test; assay type: physicochemical; conditions: edaravone saturated aqueous solution with 0.1% (w/v) additive on edaravone tablet; 1 μL, after 3.1 seconds
Description: Here, “80 degrees or less” means a range of 0-80 degrees. […] Here, the edaravone tablet refers to an edaravone tablet obtained by compression-molding 120 mg of edaravone (D50: 37 D90: 143 μm) in a flat punch having a diameter of 8 mm at a tableting pressure of 800 kg, and measurement of the contact angle refers to a case where the contact angle is measured using a contact angle measuring device (CAX-150 manufactured by Kyowa Interface Science) under the following conditions. • Syringe used: glass, 1 mL • Needle: 23 gauge • Liquid volume: 1 μL • Measurement time: after 3.1 seconds
120 mg of an edaravone drug substance (D50: 37 μm, D90: 143 μm) was compression-molded using a single-punch tableting machine (Compaction Analyzer) (punch: flat punch having a diameter of 8 mm; tableting pressure: 800 kgf), and an edaravone tablet for contact angle measurement was obtained.
Edaravone saturated aqueous solutions in which drug product additives described in the following table that are substances having a function capable of dispersing solid particles in a liquid were dissolved 0.1% (w/v) therein were prepared at a room temperature, and contact angles with respect to the edaravone tablet prepared above were measured using a contact angle measurement device (Kyowa Interface Science, Inc., CAX-150). […]

[2] = Transmission scattering light intensity test; assay type: physicochemical; conditions: 40 mL 0.1% (w/v) additive solution + 840 mg edaravone particles; for Dispersion State of Edaravone: stirred 30 minutes or more; for Transmission Scattering light Intensity ΔT %: TURBISCAN Tower, 25° C., height 39-40 mm, after 10 minutes
Description: Further, here, the transmission scattering light intensity means a value obtained after 10 minutes after starting a measurement of a transmission scattering light intensity, the measurement being performed by filling 20 mL of the above liquid in a cylindrical sample bottle (inner diameter: 25 mm×outer diameter: 27.5 mm×height: 72 mm) and by measuring the transmission scattering light intensity at a height of 39-40 mm of the sample bottle using a TURBISCAN Tower (manufactured Formulaction) (25° C.).
0.1% (w/v) aqueous solutions of drug product additives described in the following table that are substances having a function capable of dispersing solid particles in a liquid were prepared at a room temperature.
40 mL of each of the aqueous solutions of the additives was added to 840 mg of edaravone particles (edaravone powder, D50: 37 μm, D90: 143 μm) and the mixture was stirred using a stirrer for 30 minutes or more, and a dispersed state of the edaravone particles was confirmed.
Further, 20 mL of the dispersion liquid obtained above was filled into a sample bottle (inner diameter: 25 mm×outer diameter: 27.5 mm×height: 72 mm), and measurement of a transmission scattering light intensity ΔT % at a height of 39-40 mm of the sample bottle was started using a TURBISCAN Tower (manufactured by Formulaction) (with a temperature set to 25° C.), and a value obtained after 10 minutes after the start of the measurement was defined as the transmission scattering light intensity ΔT % for each additive. The transmission scattering light intensities ΔT % of the additives and the dispersion state of the edaravone particles in the additive solutions are shown in the following table.

## OC[C@@H](O)[C@@H](O)[C@H](O)[C@@H](O)CO [D-sorbitol]
[1]
  Contact Angle: 83.3 degrees
[2]
  Dispersion State of Edaravone: not dispersed
  Transmission Scattering light Intensity ΔT %: 0.000%

## Polysorbate 80
[1]
  Contact Angle: 53.1 degrees
[2]
  Dispersion State of Edaravone: dispersed
  Transmission Scattering light Intensity ΔT %: 6.151%
